# Data published in patent publication US8551981B2, “Furo[3,2-d]pyrimidine compounds” (AbbVie Inc., priority 2010, dated 2013).
# Tested on: Fcγ receptor signaling
# Test: Reverse Passive Arthus model
# Format: in vivo
# Settings: Rattus norvegicus, single dose 10 mg/kg
# Experimental: Acute in vivo measurement of Fcγ receptor signaling inhibition of the compounds is measured using the:
# Reverse Passive Arthus Model
# On day 0 OVA was made up at a concentration of 17 mg/mL, in PBS by rocking gently until a solution was formed. 2% Evans Blue solution (Sigma Aldrich, cat# E2129) was then added to double the volume for a final concentration of 8.5 mg/mL of OVA and 1% Evans Blue dye. Anti-OVA antibody (Abazyme), stock concentration 10 mg/mL, was thawed and a 4 mg/mL solution was made with PBS. Compounds were made up in 0.5% HPMC with 0.02% Tween 80, and vortexed for about 15 seconds followed by homogenization for a minimum of about 2 min at 28,000 RPM until there was a fine particulate suspension with no clumps of compound. Rats were weighed and dosed with compound at a pre-determined time based on compound Tmax determined in pharmacokinetic studies. Animals were then placed under general anesthesia with a 5% isoflourane and oxygen mixture and shaved. Using a 0.5 cc insulin syringe two sites were injected i.d., 1 site with 100 μL of 4.0 mg/mL of anti-OVA antibody, and 1 site with 100 μL of sterile PBS. Each injection site was circled with a permanent marker to mark the site. Immediately following i.d. injections, animals were injected with 200 μL of the OVA (10 mg/kg)/1% Evans Blue mixture, i.v., using a 0.5 cc insulin syringe. About 4 h post injection animals were euthanized, bled via cardiac puncture and blood was put into plasma separation tubes. Blood samples were stored on ice until centrifugation (within about 2 h of collection). Each injection site was removed with a disposable biopsy punch (Acuderm Acu-Punch Disposable 12 mm), cut into four pieces and placed in a pre-labeled 2 mL eppendorf tube. One mL of DMF (99%) was added to each biopsy tube and they were placed in a heat block at about 50° C. for about 24 h. After incubation, 100 μL of each sample was transferred to a 96 well flat bottom plate and read at 620 nm on a plate reader using the Softmax software. Background was removed by subtracting the OD from the PBS injected site from the OD of the anti-OVA injected site for each individual animal. Plasma samples were spun down in a microcentrifuge (Eppendorf 5415R) for about 5 min at 16.1 rcf. 200 μL of plasma was placed in a 1.7 mL eppendorf tube for drug level measurements and tubes were stored at about −80° C. until evaluation.
row,SMILES,inhibition in vivo at 10 mg/kg
1,"CC1(CN)CCN(c2nc(Nc3ccc4cn[nH]c4c3)nc3ccoc23)CC1 [Example #12, 4-(4-(Aminomethyl)-4-methylpiperidin-1-yl)-N-(1H-indazol-6-yl)furo[3,2-d]pyrimidin-2-amine]",8%
2,"FC(F)(F)CNc1nc(Nc2ccc3cn[nH]c3c2)nc2ccoc12 [Example #13, N^2-(1H-Indazol-6-yl)-N^4-(2,2,2-trifluoroethyl)furo[3,2-d]pyrimidine-2,4-diamine]",70%
3,"c1cc2nc(Nc3ccc4cn[nH]c4c3)nc(NC3CC3)c2o1 [Example #15, N^4-Cyclopropyl-N^2-(1H-indazol-6-yl)furo[3,2-d]pyrimidine-2,4-diamine]",45%
4,"CC1(C)C(=O)Nc2cc(Nc3nc(NCC(F)F)c4occc4n3)ccc21 [Example #16, 6-(4-(2,2-Difluoroethylamino)furo[3,2-d]pyrimidin-2-ylamino)-3,3-dimethylindolin-2-one]",63%
5,"Cc1cc(Nc2nc(NC3CC3)c3occc3n2)cc2[nH]ncc12 [Example #AC.1, N^4-cyclopropyl-N^2-(4-methyl-1H-indazol-6-yl)furo[3,2-d]pyrimidine-2,4-diamine]",43%
6,"Cc1n[nH]c2cc(Nc3nc(N4CCC(O)(CN)CC4)c4occc4n3)ccc12 [Example #AM.1, 4-(Aminomethyl)-1-(2-(3-methyl-1H-indazol-6-ylamino)furo[3,2-d]pyrimidin-yl)piperidin-4-ol]",3%
7,CC1(C)Oc2ccc(Nc3nc(N4CCC(O)(CN)CC4)c4occc4n3)cc2NC1=O [Example #AM.1.1],12%
8,CC1(C)Oc2ccc(Nc3nc(N4CC[C@@H](CN)[C@H](O)C4)c4occc4n3)cc2NC1=O [Example #AM.1.2],-16%
9,CC1(C)C(=O)Nc2cc(Nc3nc(N4CCC(O)(CN)CC4)c4occc4n3)ccc21 [Example #AM.1.3],15%
10,"CN(C)C(=O)c1n[nH]c2cc(Nc3nc(NC4CC4)c4occc4n3)ccc12 [J.1, 6-(4-(Cyclopropylamino)furo[3,2-d]pyrimidin-2-ylamino)-N,N-dimethyl-1H-indazole-3-carboxamide]",-2%
11,c1cc(-c2n[nH]c3cc(Nc4nc(NC5CC5)c5occc5n4)ccc23)ccn1 [J.1.7],12%
12,N#Cc1n[nH]c2cc(Nc3nc(NC4CC4)c4occc4n3)ccc12 [J.1.8],9%
13,Cc1n[nH]c2cc(Nc3nc(N4CCC5(CC4)CNCCO5)c4occc4n3)ccc12 [Q.1.4],33%
